# Patent publication US4851420A, “2,6-diamino-3-halobenzylpyridines and processes for their manufacture as well as their use in pharmaceuticals” (ASTA Pharma Aktiengesellschaft, priority 1986, dated 1989)
# Tests used:
# [1] = acetic acid Writhing Test (analgesia), mouse; format: in vivo; conditions: p.a. (so in the source)
# Excerpt: Acetic acid Writhing Test Koster et al., Fed. Proc., Volume 18, 412 (1959).
# [2] = Randall-Selitto Test (analgesia), rat; format: in vivo; conditions: for ED50: po
# Excerpt: Randall-Selitto Test G. Engelhardt, Arzneim. Forsch. 34, 992 et seq. (1984); Maruyama et al., Arzneim. Forsch. 28, 11 (1978).
# Toxicity, LD50 rat = conditions: in vivo, po
# Excerpt: (§1) Miller, Tainter, Proc. Soc. Exper. Biol. Med. 57, 261 (1944).
# Toxicity, LD50 mouse = conditions: in vivo, po
# Excerpt: as §1
# [3] = general absence of side-effects (gastrointestinal disorders, gastric ulcers); format: in vivo; conditions: compared to known substances, e.g. non-steroidal anti-inflammatory agents with analgesic components
SMILES,ED50 [1] [mg/kg],ED50 [2] [mg/kg],"LD50 (Toxicity, LD50 rat) [mg/kg]","LD50 (Toxicity, LD50 mouse) [mg/kg]",side-effects such as gastrointestinal disorders and gastric ulcers [3],"acetic acid Writhing Test Mouse, % effect at stated dose ([1]; at 0.5 mg/kg (printed 0.5/34%)) [%]","Randall-Selitto Test Rat, % effect at stated dose ([2]; p.o., at 0.5 mg/kg (printed 0.5/57%)) [%]"
"Nc1ccc(Cc2ccc(F)cc2)c(N)n1 [D 17033, 2,6-diamino-3-(4-fluoro)benzylpyridine]",1.4,0.2,1100,266,general absence of side-effects,–,–
"CCOC(=O)Nc1ccc(NCc2ccc(F)cc2)nc1N [Flupirtin, reference compound]",44.5,38.8,1660,633,–,–,–
"Nc1ccc(Cc2ccccc2F)c(N)n1 [D 17746, 2,6-diamino-3-(2-fluoro)benzylpyridine]",–,–,–,276,–,–,–
"Nc1ccc(Cc2c(F)cccc2Cl)c(N)n1 [D 17748, 2,6-diamino-3-(2-fluoro-6-chloro)benzylpyridine]",–,–,–,285,–,34,57
